Three compounds from the kinase profiling compilation of Christmann-Franck et al. (2016) can be followed below.

Each structure is given as a SMILES string.

By residual activity is commonly meant the signal under treatment as a percentage of the control signal.

Test in all cases: Free Choice Kinase Assay Projects, Flashplate
In one assay the target is CDK2 CCNA2 (human) (UniProt P24941+P20248). Conditions: compound 10.0 µM; ATP 0.3 µM.
In a further assay the target is SRC (human) (UniProt P12931). Conditions: compound 10.0 µM; ATP 0.3 µM.
Chain of SRC (human) (P12931 whole entry, looked up): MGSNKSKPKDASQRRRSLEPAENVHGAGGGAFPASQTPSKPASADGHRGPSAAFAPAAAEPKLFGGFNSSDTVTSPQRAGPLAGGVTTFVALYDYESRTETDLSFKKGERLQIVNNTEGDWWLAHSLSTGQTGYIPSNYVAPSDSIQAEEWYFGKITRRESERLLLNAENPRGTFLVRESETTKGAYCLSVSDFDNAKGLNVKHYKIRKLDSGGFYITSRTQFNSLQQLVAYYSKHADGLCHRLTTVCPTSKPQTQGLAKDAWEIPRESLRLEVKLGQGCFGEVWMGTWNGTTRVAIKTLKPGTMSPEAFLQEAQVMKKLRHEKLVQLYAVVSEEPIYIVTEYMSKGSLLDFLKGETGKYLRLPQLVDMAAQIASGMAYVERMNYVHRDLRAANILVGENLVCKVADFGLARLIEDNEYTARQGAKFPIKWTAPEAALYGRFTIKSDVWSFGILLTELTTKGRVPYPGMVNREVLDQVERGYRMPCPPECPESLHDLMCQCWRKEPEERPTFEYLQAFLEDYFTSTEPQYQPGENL
For the next assay, the target named is EGFR (human) (UniProt P00533). Conditions: compound 10.0 µM; ATP 0.3 µM.
The target in another assay is PDGFRB (human) (UniProt P09619). Conditions: compound 10.0 µM; ATP 0.3 µM.
Chain of PDGFRB (human) (P09619 whole entry, looked up): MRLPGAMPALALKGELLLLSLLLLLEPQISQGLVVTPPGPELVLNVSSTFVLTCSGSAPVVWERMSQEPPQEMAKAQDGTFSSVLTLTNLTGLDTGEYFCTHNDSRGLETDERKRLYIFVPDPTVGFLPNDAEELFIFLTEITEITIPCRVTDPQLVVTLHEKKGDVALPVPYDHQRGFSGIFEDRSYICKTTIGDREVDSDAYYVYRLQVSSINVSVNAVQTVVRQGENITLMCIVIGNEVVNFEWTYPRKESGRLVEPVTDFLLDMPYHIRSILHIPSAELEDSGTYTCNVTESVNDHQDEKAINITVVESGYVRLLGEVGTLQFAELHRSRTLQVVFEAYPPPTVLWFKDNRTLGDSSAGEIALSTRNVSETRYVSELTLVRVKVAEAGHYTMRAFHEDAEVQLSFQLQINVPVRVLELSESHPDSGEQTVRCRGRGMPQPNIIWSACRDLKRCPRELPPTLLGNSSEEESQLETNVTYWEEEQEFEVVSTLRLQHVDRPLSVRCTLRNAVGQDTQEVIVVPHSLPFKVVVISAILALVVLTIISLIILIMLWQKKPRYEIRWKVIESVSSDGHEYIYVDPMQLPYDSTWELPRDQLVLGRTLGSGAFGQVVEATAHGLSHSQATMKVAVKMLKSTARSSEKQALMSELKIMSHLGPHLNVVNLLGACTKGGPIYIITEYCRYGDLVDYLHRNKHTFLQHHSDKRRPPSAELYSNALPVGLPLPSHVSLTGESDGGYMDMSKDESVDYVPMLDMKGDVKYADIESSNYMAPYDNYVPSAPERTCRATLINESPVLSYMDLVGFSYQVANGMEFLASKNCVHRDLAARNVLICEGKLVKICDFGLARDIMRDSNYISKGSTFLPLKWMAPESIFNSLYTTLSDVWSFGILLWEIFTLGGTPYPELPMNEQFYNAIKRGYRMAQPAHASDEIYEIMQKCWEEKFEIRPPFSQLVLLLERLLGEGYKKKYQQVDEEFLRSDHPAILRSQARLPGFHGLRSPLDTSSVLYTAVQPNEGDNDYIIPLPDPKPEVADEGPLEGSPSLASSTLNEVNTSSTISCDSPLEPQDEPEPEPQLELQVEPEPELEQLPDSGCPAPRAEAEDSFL
In a further assay the target is IGF1R (human) (UniProt P08069). To be noted: compound 10.0 µM; ATP 1 µM.
The target in another assay is AURKA (human) (UniProt O14965). Conditions: compound 10.0 µM; ATP 10 µM.
In a further assay the target is ERBB2 (human) (UniProt P04626). Conditions: compound 10.0 µM; ATP 1 µM.
Another assay addresses EPHB4 (human) (UniProt P54760). Conditions: compound 10.0 µM; ATP 1 µM.
A further assay deals with PLK4 (human) (UniProt O00444). To be noted: compound 10.0 µM; ATP 0.3 µM.
For another assay, the target named is CDK4 CCND1 (human) (UniProt P11802+P24385). To be noted: compound 10.0 µM; ATP 3 µM.
The target of the next assay is PTK2 (human) (UniProt Q05397). To be noted: compound 10.0 µM; ATP 1 µM.
In assay [1] the test system is BRAF (human), P15056 [V600E]. Conditions: compound 10.0 µM; ATP 3 µM.
A further assay deals with PLK1 (human) (UniProt P53350). Conditions: compound 10.0 µM; ATP 1 µM.
Chain of PLK1 (human) (P53350 whole entry, looked up): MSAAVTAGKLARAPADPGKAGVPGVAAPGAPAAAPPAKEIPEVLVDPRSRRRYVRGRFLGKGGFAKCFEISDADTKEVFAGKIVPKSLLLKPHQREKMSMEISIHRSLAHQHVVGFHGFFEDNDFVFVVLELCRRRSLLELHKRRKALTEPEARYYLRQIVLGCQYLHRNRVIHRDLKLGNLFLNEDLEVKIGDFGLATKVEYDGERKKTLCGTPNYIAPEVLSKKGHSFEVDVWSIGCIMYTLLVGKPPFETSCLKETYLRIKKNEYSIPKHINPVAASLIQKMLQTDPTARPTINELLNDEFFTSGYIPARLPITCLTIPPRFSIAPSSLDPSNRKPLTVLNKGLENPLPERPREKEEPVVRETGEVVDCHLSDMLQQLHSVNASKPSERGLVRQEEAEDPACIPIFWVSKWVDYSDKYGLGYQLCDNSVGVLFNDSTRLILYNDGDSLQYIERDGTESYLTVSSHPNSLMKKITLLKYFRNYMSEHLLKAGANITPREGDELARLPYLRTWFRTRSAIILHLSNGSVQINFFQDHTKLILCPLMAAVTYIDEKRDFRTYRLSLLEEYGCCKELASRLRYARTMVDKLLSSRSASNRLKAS
A further assay has as its target TEK (human) (UniProt Q02763). Conditions: compound 10.0 µM; ATP 1 µM.
The target of a further assay is MET (human) (UniProt P08581). Conditions: compound 10.0 µM; ATP 0.3 µM.
Another assay deals with MAPK14 (human) (UniProt Q16539). To be noted: compound 10.0 µM; ATP 1 µM.
Chain of MAPK14 (human) (Q16539 whole entry, looked up): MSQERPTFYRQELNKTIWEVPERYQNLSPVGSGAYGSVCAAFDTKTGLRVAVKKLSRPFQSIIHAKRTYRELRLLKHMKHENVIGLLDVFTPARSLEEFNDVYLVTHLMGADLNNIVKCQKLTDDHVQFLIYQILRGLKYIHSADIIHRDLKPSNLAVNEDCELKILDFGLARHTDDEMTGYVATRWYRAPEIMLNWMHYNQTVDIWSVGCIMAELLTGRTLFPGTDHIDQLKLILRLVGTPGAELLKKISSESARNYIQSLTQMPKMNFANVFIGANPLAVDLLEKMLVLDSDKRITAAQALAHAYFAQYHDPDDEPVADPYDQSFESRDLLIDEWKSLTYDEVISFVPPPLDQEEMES
The target of another assay is AXL (human) (UniProt P30530). To be noted: compound 10.0 µM; ATP 0.3 µM.
A further assay concerns the target AURKB (human) (UniProt Q96GD4). Conditions: compound 10.0 µM; ATP 10 µM.
Another assay addresses MAP3K8 (human) (UniProt P41279). Conditions: compound 10.0 µM; ATP 3 µM.
The target in another assay is KDR (human) (UniProt P35968). To be noted: compound 10.0 µM; ATP 1 µM.
Chain of KDR (human) (P35968 whole entry, looked up): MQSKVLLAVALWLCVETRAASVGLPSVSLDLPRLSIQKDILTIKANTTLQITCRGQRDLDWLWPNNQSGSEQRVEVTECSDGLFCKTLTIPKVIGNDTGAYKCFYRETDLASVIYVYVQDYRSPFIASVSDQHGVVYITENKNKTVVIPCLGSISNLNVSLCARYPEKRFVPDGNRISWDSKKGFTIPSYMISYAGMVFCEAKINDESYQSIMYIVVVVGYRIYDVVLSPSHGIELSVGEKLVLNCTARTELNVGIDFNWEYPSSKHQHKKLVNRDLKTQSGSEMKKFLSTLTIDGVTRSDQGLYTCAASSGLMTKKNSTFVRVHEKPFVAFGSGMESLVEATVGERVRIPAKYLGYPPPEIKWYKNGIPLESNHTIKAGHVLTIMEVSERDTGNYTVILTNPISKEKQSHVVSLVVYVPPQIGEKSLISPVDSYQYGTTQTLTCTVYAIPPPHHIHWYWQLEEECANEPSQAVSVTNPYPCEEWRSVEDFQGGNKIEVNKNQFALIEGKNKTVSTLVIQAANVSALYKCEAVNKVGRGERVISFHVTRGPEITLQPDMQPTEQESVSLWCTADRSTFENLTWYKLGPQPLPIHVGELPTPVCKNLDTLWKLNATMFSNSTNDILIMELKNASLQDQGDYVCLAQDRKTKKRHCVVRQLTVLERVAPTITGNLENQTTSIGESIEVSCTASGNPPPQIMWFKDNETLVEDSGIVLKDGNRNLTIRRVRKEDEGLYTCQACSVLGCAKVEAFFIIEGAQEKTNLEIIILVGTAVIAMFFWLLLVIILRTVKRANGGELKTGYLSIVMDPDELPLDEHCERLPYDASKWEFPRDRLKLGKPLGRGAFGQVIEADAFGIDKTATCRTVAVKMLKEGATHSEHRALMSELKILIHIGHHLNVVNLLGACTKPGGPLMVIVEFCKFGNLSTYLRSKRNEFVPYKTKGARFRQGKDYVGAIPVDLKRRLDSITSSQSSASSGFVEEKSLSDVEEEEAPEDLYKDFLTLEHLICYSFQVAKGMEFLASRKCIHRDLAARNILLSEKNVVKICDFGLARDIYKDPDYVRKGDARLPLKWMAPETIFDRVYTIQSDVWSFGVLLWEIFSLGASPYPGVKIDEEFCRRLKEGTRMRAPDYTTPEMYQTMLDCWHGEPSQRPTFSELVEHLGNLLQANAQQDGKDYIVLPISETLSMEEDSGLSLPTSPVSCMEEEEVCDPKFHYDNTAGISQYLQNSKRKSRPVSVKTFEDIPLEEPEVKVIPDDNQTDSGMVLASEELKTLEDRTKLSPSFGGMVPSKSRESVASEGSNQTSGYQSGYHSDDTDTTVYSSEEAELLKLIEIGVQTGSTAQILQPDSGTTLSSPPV
The next assay addresses NUAK1 (human) (UniProt O60285). To be noted: compound 10.0 µM; ATP 1 µM.
The target in another assay is CSNK2A1 (human) (UniProt P68400). Conditions: compound 10.0 µM; ATP 0.1 µM.
In a further assay the target is MAPK10 (human) (UniProt P53779). To be noted: compound 10.0 µM; ATP 0.3 µM.
A further assay has as its target AKT1 (human) (UniProt P31749). To be noted: compound 10.0 µM; ATP 3 µM.

Chain of MAP3K8 (human) (P41279 whole entry, looked up): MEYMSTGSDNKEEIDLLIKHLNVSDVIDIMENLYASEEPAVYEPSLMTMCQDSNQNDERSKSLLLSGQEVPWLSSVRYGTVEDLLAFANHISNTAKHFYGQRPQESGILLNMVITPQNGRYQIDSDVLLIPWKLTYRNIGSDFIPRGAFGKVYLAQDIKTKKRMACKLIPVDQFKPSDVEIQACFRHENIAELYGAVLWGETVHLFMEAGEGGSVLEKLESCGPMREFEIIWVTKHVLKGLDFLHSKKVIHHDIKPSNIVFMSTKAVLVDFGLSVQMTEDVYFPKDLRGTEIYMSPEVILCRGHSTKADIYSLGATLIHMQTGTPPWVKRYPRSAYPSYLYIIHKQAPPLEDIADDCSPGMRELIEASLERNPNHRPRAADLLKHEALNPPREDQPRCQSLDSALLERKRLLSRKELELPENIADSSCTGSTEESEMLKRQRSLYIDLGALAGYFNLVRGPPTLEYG
Chain of CDK2 CCNA2 (human) (P20248 whole entry, looked up, other chains not shown): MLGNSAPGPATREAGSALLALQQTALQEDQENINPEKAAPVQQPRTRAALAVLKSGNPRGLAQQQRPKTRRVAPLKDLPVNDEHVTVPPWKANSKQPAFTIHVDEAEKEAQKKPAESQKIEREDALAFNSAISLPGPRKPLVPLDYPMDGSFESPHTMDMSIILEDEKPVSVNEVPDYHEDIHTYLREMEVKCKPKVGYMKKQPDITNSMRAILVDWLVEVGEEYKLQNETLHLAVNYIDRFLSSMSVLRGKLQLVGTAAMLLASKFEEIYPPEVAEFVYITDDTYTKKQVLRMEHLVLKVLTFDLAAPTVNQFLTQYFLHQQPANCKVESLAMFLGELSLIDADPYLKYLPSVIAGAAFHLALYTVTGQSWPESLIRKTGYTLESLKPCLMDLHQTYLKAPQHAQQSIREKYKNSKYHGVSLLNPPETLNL

With `Oc1ccc(CSc2nc(-c3ccncc3)c(-c3ccc(F)cc3)[nH]2)cc1`, the residual activity at CDK2 CCNA2 (human) amounted to 117%; at SRC (human), 34%; on EGFR (human), 20%; on PDGFRB (human), 65%; at IGF1R (human), 104%; at AURKA (human), 64%. For the same compound, the residual activity on ERBB2 (human) is 22%; at EPHB4 (human), 42%; at PLK4 (human), 51%; at CDK4 CCND1 (human), 103%; on PTK2 (human), 99%; in [1], 5%. For the same compound, the residual activity at PLK1 (human) was determined as 120%; at TEK (human), 33%; on MET (human), 78%; on MAPK14 (human), 4%; at AXL (human), 91%; on AURKB (human), 78%. Besides, the residual activity came to 96% at MAP3K8 (human); 26% on KDR (human); 126% on NUAK1 (human); 107% on CSNK2A1 (human); 48% at MAPK10 (human); 130% at AKT1 (human).
For `Fc1ccc(-c2[nH]c(SCCc3ccccc3)nc2-c2ccncc2)cc1`, the residual activity on CDK2 CCNA2 (human) worked out at 72%; at SRC (human) it was 43%; at EGFR (human), 24%; at PDGFRB (human), 80%; at IGF1R (human), 43%; on AURKA (human), 75%. The residual activity on ERBB2 (human) worked out at 41%; at EPHB4 (human), 48%; at PLK4 (human) it was 56%; on CDK4 CCND1 (human), 59%; on PTK2 (human), 95%; on PLK1 (human) it was 93%. Also, the residual activity at TEK (human) worked out at 51%; at MET (human), 66%; at MAPK14 (human), 41%; on AXL (human), 84%; on AURKB (human), 78%; at MAP3K8 (human), 69%. Moreover, the residual activity was found to be 45% at KDR (human); 77% on NUAK1 (human); 96% at CSNK2A1 (human); 81% on MAPK10 (human); 122% on AKT1 (human).
Regarding `CSc1nc(-c2ccnc(NC(=O)C3CCCC3)c2)c(-c2ccc(F)cc2)n1C`, the residual activity at CDK2 CCNA2 (human) turned out to be 88%; at SRC (human) it was 43%; on EGFR (human), 30%; on PDGFRB (human), 65%; at IGF1R (human), 53%; on AURKA (human), 72%. In addition, the residual activity at ERBB2 (human) stood at 48%; on EPHB4 (human) it was 39%; on PLK4 (human) it was 46%; on CDK4 CCND1 (human) it was 105%; at PTK2 (human), 80%; on PLK1 (human), 107%. The residual activity at TEK (human) came out at 35%; at MET (human) it was 91%; at MAPK14 (human), 3%; at AXL (human) it was 62%; on AURKB (human), 92%; at MAP3K8 (human), 88%. Further, the residual activity turned out to be 49% at KDR (human); 100% on NUAK1 (human); 91% on CSNK2A1 (human); 16% on MAPK10 (human); 100% at AKT1 (human).
